Reference: patent US20250145687A1, “MODIFIED LIGAND-GATED ION CHANNELS AND METHODS OF USE” (Howard Hughes Medical Institute, priority 2022, published 2025)
Where two headings read alike, the source gives them in different places.

Assays:
Type in all cases: cell-based
[1] = target: T1, α7^L131G,Q139L,Y217F-5HT3 V154I, R155Y, W156N, S172A (Homo sapiens, UniProt P36544, L131G/M226I/Q139L/R155Y/S172A/T225I/V154I/W156N/Y217F); test: EC50 dose response, PSAM4-5HT3 with additional mutations; settings: read-out: EC50s (SEM) for additional mutations of α7^L131G, Q139L, Y217F -5HT3
T1 construct: expressed in transfected cells; host or cells: HEK 293

[2] = target: T2, α7^L131G,Q139L,Y217F-5HT3 S172A (Homo sapiens, UniProt P36544, L131G/M226I/Q139L/S172A/T225I/Y217F); test: as above; settings: additional mutation S172A; read-out: EC50s (SEM) for additional mutations of α7^L131G, Q139L, Y217F -5HT3
T2 construct: expressed in transfected cells; host or cells: HEK 293

[3] = target: T3, α7^L131G,Q139L,Y217F-5HT3 S172I (Homo sapiens, UniProt P36544, L131G/M226I/Q139L/S172I/T225I/Y217F); test: as above; settings: additional mutation S172I; read-out: EC50s (SEM) for additional mutations of α7^L131G, Q139L, Y217F -5HT3
T3 construct: expressed in transfected cells; host or cells: HEK 293

[4] = target: T4, PSAM4-5HT3 (α7-5HT3^L131G,Q139L,Y217F) (Homo sapiens, UniProt P36544, L131G/M226I/Q139L/T225I/Y217F); test: EC50 dose response of LGIC ligands on PSAM4-5HT3; settings: read-out: EC50s (SEM) for additional mutations of α7^L131G, Q139L, Y217F -5HT3
T4 construct: expressed in transfected cells; host or cells: HEK 293

[5] = target: T5, α7^L131G,Q139L,Y217F-5HT3 H163T (Homo sapiens, UniProt P36544, H163T/L131G/M226I/Q139L/T225I/Y217F); test: EC50 dose response, PSAM4-5HT3 with additional mutations; settings: additional mutation H163T; read-out: EC50s (SEM) for additional mutations of α7^L131G, Q139L, Y217F -5HT3
T5 construct: expressed in transfected cells; host or cells: HEK 293

[6] = target: T6, α7^L131G,Q139L,Y217F-5HT3 V154I, R155Y, W156N, S172V (Homo sapiens, UniProt P36544, L131G/M226I/Q139L/R155Y/S172V/T225I/V154I/W156N/Y217F); test: as above; settings: read-out: EC50s (SEM) for additional mutations of α7^L131G, Q139L, Y217F -5HT3
T6 construct: expressed in transfected cells; host or cells: HEK 293

[7] = target: T7, α7^L131G,Q139L,Y217F-5HT3 V154L, R155Y, W156Q (Homo sapiens, UniProt P36544, L131G/M226I/Q139L/R155Y/T225I/V154L/W156Q/Y217F); test: as above; settings: read-out: EC50s (SEM) for additional mutations of α7^L131G, Q139L, Y217F -5HT3
T7 construct: expressed in transfected cells; host or cells: HEK 293

[8] = target: T8, α7^L131G,Q139L,Y217F-5HT3 S172V (Homo sapiens, UniProt P36544, L131G/M226I/Q139L/S172V/T225I/Y217F); test: as above; settings: additional mutation S172V; read-out: EC50s (SEM) for additional mutations of α7^L131G, Q139L, Y217F -5HT3
T8 construct: expressed in transfected cells; host or cells: HEK 293

[9] = target: T9, α7^L131G,Q139L,Y217F-5HT3 H163D (Homo sapiens, UniProt P36544, H163D/L131G/M226I/Q139L/T225I/Y217F); test: as above; settings: additional mutation H163D; read-out: EC50s (SEM) for additional mutations of α7^L131G, Q139L, Y217F -5HT3
T9 construct: expressed in transfected cells; host or cells: HEK 293

[10] = target: T10, α7-5HT3 L131G, Q139L, Y217A (Homo sapiens, UniProt P36544, L131G/M226I/Q139L/T225I/Y217A); test: EC50 dose response, α7-5HT3 mutant; settings: read-out: EC50s (SEM) for additional mutations of α7^L131G, Q139L, Y217F -5HT3
T10 construct: expressed in transfected cells; host or cells: HEK 293

[11] = target: T11, α7-5HT3 L131G, Q139L, W171Y (Homo sapiens, UniProt P36544, L131G/M226I/Q139L/T225I/W171Y); test: EC50 dose response, α7-5HT3 mutant; settings: read-out: EC50s (SEM) for additional mutations of α7^L131G, Q139L, Y217F -5HT3
T11 construct: expressed in transfected cells; host or cells: HEK 293

[12] = target: T12, α7^L131G,Q139L,Y217F-5HT3 H163R (Homo sapiens, UniProt P36544, H163R/L131G/M226I/Q139L/T225I/Y217F); test: EC50 dose response, PSAM4-5HT3 with additional mutations; settings: additional mutation H163R; read-out: EC50s (SEM) for additional mutations of α7^L131G, Q139L, Y217F -5HT3
T12 construct: expressed in transfected cells; host or cells: HEK 293

[13] = target: T13, α7-5HT3 L131G, Q139L, W171F (Homo sapiens, UniProt P36544, L131G/M226I/Q139L/T225I/W171F); test: EC50 dose response, α7-5HT3 mutant; settings: read-out: EC50s (SEM) for additional mutations of α7^L131G, Q139L, Y217F -5HT3
T13 construct: expressed in transfected cells; host or cells: HEK 293

[14] = target: T14, α7^L131G,Q139L,Y217F-5HT3 W156N, H163T (Homo sapiens, UniProt P36544, H163T/L131G/M226I/Q139L/T225I/W156N/Y217F); test: EC50 dose response, PSAM4-5HT3 with additional mutations; settings: read-out: EC50s (SEM) for additional mutations of α7^L131G, Q139L, Y217F -5HT3
T14 construct: expressed in transfected cells; host or cells: HEK 293

[15] = target: T15, α7-5HT3 L131G, Q139L, Y217H (Homo sapiens, UniProt P36544, L131G/M226I/Q139L/T225I/Y217H); test: EC50 dose response, α7-5HT3 mutant; settings: read-out: EC50s (SEM) for additional mutations of α7^L131G, Q139L, Y217F -5HT3
T15 construct: expressed in transfected cells; host or cells: HEK 293

[16] = target: T16, α7^L131G,Q139L,Y217F-5HT3 H163F (Homo sapiens, UniProt P36544, H163F/L131G/M226I/Q139L/T225I/Y217F); test: EC50 dose response, PSAM4-5HT3 with additional mutations; settings: additional mutation H163F; read-out: EC50s (SEM) for additional mutations of α7^L131G, Q139L, Y217F -5HT3
T16 construct: expressed in transfected cells; host or cells: HEK 293

[17] = target: T17, α7^L131G,Q139L,Y217F-5HT3 H163V (Homo sapiens, UniProt P36544, H163V/L131G/M226I/Q139L/T225I/Y217F); test: as above; settings: additional mutation H163V; read-out: EC50s (SEM) for additional mutations of α7^L131G, Q139L, Y217F -5HT3
T17 construct: expressed in transfected cells; host or cells: HEK 293

[18] = target: T18, α7^L131G,Q139L,Y217F-5HT3 H163S (Homo sapiens, UniProt P36544, H163S/L131G/M226I/Q139L/T225I/Y217F); test: as above; settings: additional mutation H163S; read-out: EC50s (SEM) for additional mutations of α7^L131G, Q139L, Y217F -5HT3
T18 construct: expressed in transfected cells; host or cells: HEK 293

[19] = target: T19, α7^L131G,Q139L,Y217F-5HT3 W156N (Homo sapiens, UniProt P36544, L131G/M226I/Q139L/T225I/W156N/Y217F); test: cell-based; settings: additional mutation W156N; read-out: EC50s (SEM) for additional mutations of α7^L131G, Q139L, Y217F -5HT3
T19 construct: expressed in transfected cells; host or cells: HEK 293

[20] = target: T20, α7^L131G,Q139L,Y217F-5HT3 H163N (Homo sapiens, UniProt P36544, H163N/L131G/M226I/Q139L/T225I/Y217F); test: EC50 dose response, PSAM4-5HT3 with additional mutations; settings: additional mutation H163N; read-out: EC50s (SEM) for additional mutations of α7^L131G, Q139L, Y217F -5HT3
T20 construct: expressed in transfected cells; host or cells: HEK 293

[21] = target: T21, α7^L131G,Q139L,Y217F-5HT3 H163T, S172A (Homo sapiens, UniProt P36544, H163T/L131G/M226I/Q139L/S172A/T225I/Y217F); test: as above; settings: read-out: EC50s (SEM) for additional mutations of α7^L131G, Q139L, Y217F -5HT3
T21 construct: expressed in transfected cells; host or cells: HEK 293

[22] = target: T22, α7^L131G,Q139L,Y217F-5HT3 H163A (Homo sapiens, UniProt P36544, H163A/L131G/M226I/Q139L/T225I/Y217F); test: as above; settings: additional mutation H163A; read-out: EC50s (SEM) for additional mutations of α7^L131G, Q139L, Y217F -5HT3
T22 construct: expressed in transfected cells; host or cells: HEK 293

[23] = target: T23, α7-5HT3 L131G, Q139L, Y217N (Homo sapiens, UniProt P36544, L131G/M226I/Q139L/T225I/Y217N); test: EC50 dose response, α7-5HT3 mutant; settings: read-out: EC50s (SEM) for additional mutations of α7^L131G, Q139L, Y217F -5HT3
T23 construct: 5HT3 ion pore domain (fusion partner); expressed in transfected cells

[24] = target: T24, α7-5HT3 L131G, Q139L, Y217V (Homo sapiens, UniProt P36544, L131G/M226I/Q139L/T225I/Y217V); test: EC50 dose response, α7-5HT3 mutant; settings: read-out: EC50s (SEM) for additional mutations of α7^L131G, Q139L, Y217F -5HT3
T24 construct: 5HT3 ion pore domain (fusion partner); expressed in transfected cells; HEK 293 is named only for the electrophysiology

[25] = target: T25, α7^L131G,Q139L,Y217F-5HT3 H163T, S172V (Homo sapiens, UniProt P36544, H163T/L131G/M226I/Q139L/S172V/T225I/Y217F); test: EC50 dose response, PSAM4-5HT3 with additional mutations; settings: read-out: EC50s (SEM) for additional mutations of α7^L131G, Q139L, Y217F -5HT3
T25 construct: expressed in transfected cells; host or cells: HEK 293

[26] = target: T26, α7^L131G,Q139L,Y217F-5HT3 H163K (Homo sapiens, UniProt P36544, H163K/L131G/M226I/Q139L/T225I/Y217F); test: as above; settings: additional mutation H163K; read-out: EC50s (SEM) for additional mutations of α7^L131G, Q139L, Y217F -5HT3
T26 construct: expressed in transfected cells; host or cells: HEK 293

[27] = target: T27, α7^L131G,Q139L,Y217F-5HT3 V154I, R155Y, W156N (Homo sapiens, UniProt P36544, L131G/M226I/Q139L/R155Y/T225I/V154I/W156N/Y217F); test: as above; settings: read-out: EC50s (SEM) for additional mutations of α7^L131G, Q139L, Y217F -5HT3
T27 construct: expressed in transfected cells; host or cells: HEK 293

[28] = PSAM4-5HT3 (no additional mutation)
[29] = line L131G, Q139L, Y217F (same values as PSAM4-5HT3 line)

T4 sequence (P36544 with tags, fused parts or gaps L131G/Q139L/Y217F/T225I/M226I limits assumed): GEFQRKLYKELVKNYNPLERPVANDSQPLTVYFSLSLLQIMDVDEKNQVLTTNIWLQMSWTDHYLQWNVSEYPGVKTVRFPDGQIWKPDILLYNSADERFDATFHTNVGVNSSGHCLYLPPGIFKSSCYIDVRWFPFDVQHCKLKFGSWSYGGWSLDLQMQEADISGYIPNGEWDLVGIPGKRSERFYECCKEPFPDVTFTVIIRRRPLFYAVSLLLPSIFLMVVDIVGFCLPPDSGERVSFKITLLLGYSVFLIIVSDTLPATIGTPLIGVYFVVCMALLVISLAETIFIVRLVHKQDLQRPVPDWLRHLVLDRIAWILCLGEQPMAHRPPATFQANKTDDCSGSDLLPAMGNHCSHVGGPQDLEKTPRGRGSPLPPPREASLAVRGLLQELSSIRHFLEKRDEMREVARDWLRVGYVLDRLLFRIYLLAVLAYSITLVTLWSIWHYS
T16 sequence (P36544 with tags, fused parts or gaps L131G/Q139L/H163F/Y217F/T225I/M226I limits assumed): as the sequence (P36544 with tags, fused parts or gaps L131G/Q139L/Y217F/T225I/M226I limits assumed) above, with H141F counted along it
T17 sequence (P36544 with tags, fused parts or gaps L131G/Q139L/H163V/Y217F/T225I/M226I limits assumed): as the sequence (P36544 with tags, fused parts or gaps L131G/Q139L/Y217F/T225I/M226I limits assumed) above, with H141V counted along it
T3 sequence (P36544 with tags, fused parts or gaps L131G/Q139L/S172I/Y217F/T225I/M226I limits assumed): as the sequence (P36544 with tags, fused parts or gaps L131G/Q139L/Y217F/T225I/M226I limits assumed) above, with S150I counted along it
T1 sequence (P36544 with tags, fused parts or gaps L131G/Q139L/V154I/R155Y/W156N/S172A/Y217F/T225I/M226I limits assumed): as the sequence (P36544 with tags, fused parts or gaps L131G/Q139L/Y217F/T225I/M226I limits assumed) above, with V132I, R133Y, W134N, S150A counted along it
T14 sequence (P36544 with tags, fused parts or gaps L131G/Q139L/W156N/H163T/Y217F/T225I/M226I limits assumed): as the sequence (P36544 with tags, fused parts or gaps L131G/Q139L/Y217F/T225I/M226I limits assumed) above, with W134N, H141T counted along it
T9 sequence (P36544 with tags, fused parts or gaps L131G/Q139L/H163D/Y217F/T225I/M226I limits assumed): as the sequence (P36544 with tags, fused parts or gaps L131G/Q139L/Y217F/T225I/M226I limits assumed) above, with H141D counted along it
T20 sequence (P36544 with tags, fused parts or gaps L131G/Q139L/H163N/Y217F/T225I/M226I limits assumed): as the sequence (P36544 with tags, fused parts or gaps L131G/Q139L/Y217F/T225I/M226I limits assumed) above, with H141N counted along it
T11 sequence (P36544 with tags, fused parts or gaps L131G/Q139L/W171Y/T225I/M226I limits assumed): as the sequence (P36544 with tags, fused parts or gaps L131G/Q139L/Y217F/T225I/M226I limits assumed) above, with W149Y, F195Y counted along it
T19 sequence (P36544 with tags, fused parts or gaps L131G/Q139L/W156N/Y217F/T225I/M226I limits assumed): as the sequence (P36544 with tags, fused parts or gaps L131G/Q139L/Y217F/T225I/M226I limits assumed) above, with W134N counted along it
T23 sequence (P36544 with tags, fused parts or gaps L131G/Q139L/Y217N/T225I/M226I limits assumed): as the sequence (P36544 with tags, fused parts or gaps L131G/Q139L/Y217F/T225I/M226I limits assumed) above, with F195N counted along it

SMILES	EC50 [1]	EC50 [2]	EC50 [3]	EC50 [4, 28]	EC50 [4, 29]	EC50 [5]	EC50 [6]	EC50 [7]	EC50 [8]	EC50 [9]	EC50 [10]	EC50 [11]	EC50 [12]	EC50 [13]	EC50 [14]	EC50 [15]	EC50 [16]	EC50 [17]	EC50 [18]	EC50 [19]	further results
COc1cnc2cc3c(cc2n1)C1CNCC3C1 (stereo not shown) [uPSEM 793]	4.1 nM	4 nM	10 nM	1.7 nM	1.7 nM	1.4 nM	7.7 nM	0.7 nM	2.7 nM	0.3 nM	1.2 nM	> 100 nM	1.5 nM	> 100 nM	2 nM	0.8 nM	0.7 nM	1.5 nM	0.4 nM	0.7 nM	EC50 [20]: 2.1 nM; EC50 [21]: 2.5 nM; EC50 [22]: 0.5 nM; EC50 [23]: > 100 nM; EC50 [24]: 2.4 nM; EC50 [25]: 1.5 nM; EC50 [26]: 0.5 nM
CCCOc1cnc2cc3c(cc2n1)C1CNCC3C1 (stereo not shown) [uPSEM 817]	12 nM	7 nM	18 nM	4.1 nM	4.1 nM	12 nM	13 nM	17 nM	6 nM	2.5 nM	9.2 nM	> 100 nM	5.5 nM	> 100 nM	13 nM	16 nM	8.2 nM	9 nM	8.1 nM	15 nM	EC50 [20]: 9.1 nM; EC50 [21]: 7.8 nM; EC50 [22]: 53 nM; EC50 [23]: > 100 nM; EC50 [24]: 24 nM; EC50 [27]: 13 nM; EC50 [25]: 6.3 nM; EC50 [26]: 10 nM
